Test results taken from patent US9771333B2, “Quinazoline derivatives as TAM family kinase inhibitors” (SIGNALCHEM LIFESCIENCES CORP., priority 2013, dated 2017).

Columns and labels:
Type in all cases: biochemical
human Tyro3 = target: T1, human Tyro3 (Homo sapiens, UniProt Q06418); experiment: Kinase enzymatic activity assay (33P-radiolabeled phosphate transfer), Tyro3; settings: recombinant human Tyro3 (455-end), poly(4:1 glu:tyr) substrate, 30 minutes
T1 construct: GST (N); made in house; host or cells: Sf9 insect cells (baculovirus)
T1 sequence (Q06418 455-890 limits assumed): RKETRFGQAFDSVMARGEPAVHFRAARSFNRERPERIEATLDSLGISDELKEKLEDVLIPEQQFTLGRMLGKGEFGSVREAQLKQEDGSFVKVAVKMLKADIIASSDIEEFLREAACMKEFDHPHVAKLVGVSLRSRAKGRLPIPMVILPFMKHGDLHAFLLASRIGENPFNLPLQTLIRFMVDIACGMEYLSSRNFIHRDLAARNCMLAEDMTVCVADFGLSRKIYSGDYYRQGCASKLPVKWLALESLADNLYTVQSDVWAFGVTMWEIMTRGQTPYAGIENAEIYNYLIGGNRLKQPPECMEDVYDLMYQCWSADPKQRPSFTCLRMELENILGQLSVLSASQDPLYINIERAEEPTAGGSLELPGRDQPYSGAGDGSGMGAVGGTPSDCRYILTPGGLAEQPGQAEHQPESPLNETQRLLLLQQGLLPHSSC
Summary of the method: (§1)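 GST-tagged human Tyro3 (455-end), Axl (473-end) and Mer (578-872) from Sf9 cells, with poly(Glu:Tyr) 4:1 substrate, in MOPS pH 7.2 buffer with MgCl2. [33P]-ATP added from a 250 µM cocktail; reaction 30 min at room temperature, filter-captured counts, duplicates. IC50 derived from % inhibition over a compound serial dilution.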

human Axl = target: T2, human Axl (Homo sapiens, UniProt P30530); experiment: Kinase enzymatic activity assay (33P-radiolabeled phosphate transfer), Axl; settings: recombinant human Axl (473-end), poly(4:1 glu:tyr) substrate, 30 minutes
T2 construct: GST (N); made in house; host or cells: Sf9 insect cells (baculovirus)
T2 sequence (P30530 473-894 limits assumed): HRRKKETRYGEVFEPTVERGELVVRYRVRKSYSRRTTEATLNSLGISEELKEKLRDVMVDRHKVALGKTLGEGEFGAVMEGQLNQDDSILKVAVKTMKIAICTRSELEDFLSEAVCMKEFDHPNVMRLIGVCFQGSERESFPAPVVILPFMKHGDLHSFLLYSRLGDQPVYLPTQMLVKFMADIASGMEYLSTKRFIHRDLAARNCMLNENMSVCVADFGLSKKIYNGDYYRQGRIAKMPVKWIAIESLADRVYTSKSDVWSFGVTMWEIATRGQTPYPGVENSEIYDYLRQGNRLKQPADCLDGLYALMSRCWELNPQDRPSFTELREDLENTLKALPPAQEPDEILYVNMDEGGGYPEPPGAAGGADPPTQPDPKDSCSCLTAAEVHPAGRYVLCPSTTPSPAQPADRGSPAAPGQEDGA
Summary of the method: as §1

human Mer = target: T3, human Mer (Homo sapiens, UniProt Q12866); experiment: Kinase enzymatic activity assay (33P-radiolabeled phosphate transfer), Mer; settings: recombinant human Mer (578-872), poly(4:1 glu:tyr) substrate, 30 minutes
T3 construct: GST (N); made in house; host or cells: Sf9 insect cells (baculovirus)
T3 sequence (Q12866 578-872): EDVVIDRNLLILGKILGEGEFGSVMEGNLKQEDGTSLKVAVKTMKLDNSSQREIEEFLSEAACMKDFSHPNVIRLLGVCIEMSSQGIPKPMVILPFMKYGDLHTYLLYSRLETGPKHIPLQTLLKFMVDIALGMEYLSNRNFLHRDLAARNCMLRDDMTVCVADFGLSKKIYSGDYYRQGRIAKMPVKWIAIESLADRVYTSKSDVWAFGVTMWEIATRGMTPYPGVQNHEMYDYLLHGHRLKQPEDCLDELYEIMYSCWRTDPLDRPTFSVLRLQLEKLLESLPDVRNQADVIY
Summary of the method: as §1

Row | SMILES | IC50 (human Tyro3) [nM] | IC50 (human Axl) [nM] | IC50 (human Mer) [nM]
1 | Cc1csc(Sc2ncnc3cc(OCC4CCN(C)CC4)cc(OC4CCOCC4)c23)n1 [Example 2.51, 4-methyl-2-((7-((1-methylpiperidin-4-yl)methoxy)-5-((tetrahydro-2H-pyran-4-yl)oxy)quinazolin-4-yl)thio)thiazole] | < 500 | < 500 | 1000 to 10000
2 | CN1CCC(COc2cc(OC3CCOCC3)c3c(Sc4nccs4)ncnc3c2)CC1 [Example 2.52, 2-((7-((1-methylpiperidin-4-yl)methoxy)-5-((tetrahydro-2H-pyran-4-yl)oxy)quinazolin-4-yl)thio)thiazole] | < 500 | < 500 | < 500
3 | FC(F)(F)c1csc(Nc2ncnc3cc(OCCN4CCOCC4)cc(OC4CCOCC4)c23)n1 [Example 2.53, N-(7-(2-morpholinoethoxy)-5-((tetrahydro-2H-pyran-4-yl)oxy)quinazolin-4-yl)-4-(trifluoromethyl)thiazol-2-amine] | > 10000 | 1000 to 10000 | > 10000
4 | CN(C)CCCOc1cc(OC2CCOCC2)c2c(Nc3nc(C(F)(F)F)cs3)ncnc2c1 [Example 2.54, N-(7-(3-(dimethylamino)propoxy)-5-((tetrahydro-2H-pyran-4-yl)oxy)quinazolin-4-yl)-4-(trifluoromethyl)thiazol-2-amine] | > 10000 | < 500 | 1000 to 10000
5 | OC[C@@H](O)COc1cc(OC2CCOCC2)c2c(Nc3nc(C(F)(F)F)cs3)ncnc2c1 [Example 2.55, (R)-3-((5-((tetrahydro-2H-pyran-4-yl)oxy)-4-((4-(trifluoromethyl)thiazol-2-yl)amino)quinazolin-7-yl)oxy)propane-1,2-diol] | > 10000 | 500 to 1000 | > 10000
6 | CN(C)CCOCCOc1cc(OC2CCOCC2)c2c(Nc3nc(C(F)(F)F)cs3)ncnc2c1 [Example 2.56, N-(7-(2-(2-(dimethylamino)ethoxy)ethoxy)-5-((tetrahydro-2H-pyran-4-yl)oxy)quinazolin-4-yl)-4-(trifluoromethyl)thiazol-2-amine] | > 10000 | < 500 | 1000 to 10000
7 | CN(C)CCN1CCN(c2cc(OC3CCOCC3)c3c(Nc4nc(C(F)(F)F)cs4)ncnc3c2)CC1 [Example 2.57, N-(7-(4-(2-(dimethyl-amino)ethyl)piperazin-1-yl)-5-((tetrahydro-2H-pyran-4-yl)oxy)-quinazolin-4-yl)-4-(trifluoromethyl)-thiazol-2-amine] | 1000 to 10000 | < 500 | 1000 to 10000
8 | CN1CCC(COc2cc(OC3CCOCC3)c3c(Nc4cc(C(F)(F)F)no4)ncnc3c2)CC1 [Example 2.58, N-(7-((1-methylpiperidin-4-yl)methoxy)-5-((tetrahydro-2H-pyran-4-yl)oxy)quinazolin-4-yl)-3-(trifluoromethyl)isoxazol-5-amine] | > 10000 | 500 to 1000 | 1000 to 10000
9 | CN(C)CCCN(C)c1cc(OC2CCOCC2)c2c(Nc3nc(C(F)(F)F)cs3)ncnc2c1 [Example 2.59, N^7-(3-(dimethylamino)-propyl)-N^7-methyl-5-((tetrahydro-2H-pyran-4-yl)oxy)-N^4-(4-(trifluoromethyl)thiazol-2-yl)quinazoline-4,7-diamine] | > 10000 | 500 to 1000 | > 10000
10 | FC(F)(F)c1csc(Nc2ncnc3cc(OCCN4CCCCC4)cc(OC4CCOCC4)c23)n1 [Example 2.60, N-(7-(2-(piperidin-1-yl)ethoxy)-5-((tetrahydro-2H-pyran-4-yl)oxy)quinazolin-4-yl)-4-(trifluoromethyl)thiazol-2-amine] | > 10000 | < 500 | < 500
11 | CN1CCC(COc2cc(OC3CCOCC3)c3c(Nc4ccon4)ncnc3c2)CC1 [Example 2.61, N-(7-((1-methylpiperidin-4-yl)methoxy)-5-((tetrahydro-2H-pyran-4-yl)oxy)-quinazolin-4-yl)isoxazol-3-amine] | 1000 to 10000 | < 500 | < 500
12 | CN(C)CCCOc1cc(OC2CCOCC2)c2c(Oc3ccc(F)cc3Cl)ncnc2c1 [Example 2.62, 3-((4-(2-chloro-4-fluorophenoxy)-5-((tetrahydro-2H-pyran-4-yl)oxy)quinazolin-7-yl)oxy)-N,N-dimethylpropan-1-amine] | < 500 | 1000 to 10000 | < 500
13 | CN1CCN(CCCOc2cc(OC3CCOCC3)c3c(Oc4ccc(F)cc4Cl)ncnc3c2)CC1 [Example 2.63, 4-(2-chloro-4-fluorophenoxy)-7-(3-(4-methylpiperazin-1-yl)propoxy)-5-((tetrahydro-2H-pyran-4-yl)oxy)quinazoline] | < 500 | < 500 | < 500
14 | CN1CCN(CCOc2cc(OC3CCOCC3)c3c(Oc4ccc(F)cc4Cl)ncnc3c2)CC1 [Example 3, 4-(2-chloro-4-fluorophenoxy)-7-(2-(4-methylpiperazin-1-yl)ethoxy)-5-((tetrahydro-2H-pyran-4-yl)oxy)quinazoline] | 500 to 1000 | 1000 to 10000 | 1000 to 10000
15 | COc1cc(OC2CCOCC2)c2c(Oc3ccc(F)cc3Cl)ncnc2c1 [Example 3.1, 4-(2-chloro-4-fluorophenoxy)-7-methoxy-5-((tetrahydro-2H-pyran-4-yl)oxy)quinazoline] | 500 to 1000 | > 10000 | 500 to 1000
16 | CN1CCN(CCOc2cc(OC3CCOCC3)c3c(Oc4ccccc4)ncnc3c2)CC1 [Example 3.2, 7-(2-(4-methylpiperazin-1-yl)ethoxy)-4-phenoxy-5-((tetrahydro-2H-pyran-4-yl)oxy)quinazoline] | < 500 | < 500 | 1000 to 10000
17 | CN1CCN(CCOc2cc(OC3CCOCC3)c3c(Sc4ccc(F)cc4Cl)ncnc3c2)CC1 [Example 3.3, 4-((2-chloro-4-fluorophenyl)thio)-7-(2-(4-methylpiperazin-1-yl)ethoxy)-5-((tetrahydro-2H-pyran-4-yl)oxy)quinazoline] | < 500 | > 10000 | 1000 to 10000
18 | CN1CCN(CCOc2cc(OC3CCOCC3)c3c(OC4CCCCC4)ncnc3c2)CC1 [Example 3.4, 4-(cyclohexyloxy)-7-(2-(4-methylpiperazin-1-yl)ethoxy)-5-((tetrahydro-2H-pyran-4-yl)oxy)quinazoline] | 1000 to 10000 | 500 to 1000 | 500 to 1000
19 | COCCOc1cc(OCCN2CCN(C)CC2)cc2ncnc(Sc3ccc(Cl)cc3)c12 [Example 4, 4-((4-chlorophenyl)thio)-5-(2-methoxyethoxy)-7-(2-(4-methylpiperazin-1-yl)ethoxy)quinazoline] | 1000 to 10000 | > 10000 | > 10000
20 | COCCOc1cc(OCCN2CCN(C)CC2)cc2ncnc(Sc3ccc(F)cc3)c12 [Example 4.1, 4-((4-fluorophenyl)thio)-5-(2-methoxyethoxy)-7-(2-(4-methylpiperazin-1-yl)ethoxy)quinazoline] | 500 to 1000 | > 10000 | > 10000
21 | COCCOc1cc(OCCN2CCN(C)CC2)cc2ncnc(Sc3cc(Cl)cc(Cl)c3)c12 [Example 4.2, 4-((3,5-dichlorophenyl)thio)-5-(2-methoxyethoxy)-7-(2-(4-methylpiperazin-1-yl)ethoxy)quinazoline] | 1000 to 10000 | 1000 to 10000 | > 10000
22 | COCCOc1cc(OCCN2CCN(C)CC2)cc2ncnc(Sc3cc(F)cc(F)c3)c12 [Example 4.3, 4-((3,5-difluorophenyl)thio)-5-(2-methoxyethoxy)-7-(2-(4-methylpiperazin-1-yl)ethoxy)quinazoline] | 1000 to 10000 | 1000 to 10000 | > 10000
23 | COCCOc1cc(OCCN2CCN(C)CC2)cc2ncnc(Sc3ccc(Cl)cc3Cl)c12 [Example 4.4, 4-((2,4-dichlorophenyl)thio)-5-(2-methoxyethoxy)-7-(2-(4-methylpiperazin-1-yl)ethoxy)quinazoline] | 1000 to 10000 | 1000 to 10000 | > 10000
